Data taken from paper PMC6273978, “Synthesis and Pharmacological Evaluation of Novel Pleuromutilin Derivatives with Substituted Benzimidazole Moieties” (Molecules, 2016).
Converted amounts (≈) assume the structure as drawn.

What was measured:
Experiment in all cases: MIC testing, agar dilution method
Type in all cases: cell-based
[1] = tested on: Escherichia coli (E. coli); conditions: 36.5 °C, 24–48 h
In short: (§1)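 Stocks at 1280 µg/mL in 25%–40% DMSO are diluted twofold 11 times, to 0.625 µg/mL, and each dilution is blended into hot Mueller-Hinton agar. Plates receive 10 µL of 10^5–10^6 CFU/mL suspensions and are incubated at 36.5 °C for 24–48 h.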

[2] = tested on: Methicillin-resistant Staphylococcus aureus (MRSA); conditions: 36.5 °C, 24–48 h
In short: as §1

[3] = tested on: Staphylococcus aureus (S. aureus); conditions: 36.5 °C, 24–48 h
In short: as §1

[4] = tested on: Staphylococcus haemolyticus (S. haemolyticus); conditions: 36.5 °C, 24–48 h
In short: as §1

[5] = tested on: Staphylococcus vitulinus (S. vitulinus); conditions: Mammaliicoccus vitulinus, 36.5 °C, 24–48 h
In short: as §1

[6] = tested on: Staphylococcus warneri (S. warneri); conditions: 36.5 °C, 24–48 h
In short: as §1

**Q.** What does the source list for C=C[C@]1(C)C[C@@H](OC(=O)CSc2nc3ccc(N)cc3[nH]2)[C@]2(C)[C@H](C)CC[C@]3(CCC(=O)[C@H]32)[C@@H](C)[C@@H]1O [Compound 3, 14-O-((5-Amino-benzimidazole-2-yl)thioacetyl) Mutilin]?
**A.** MIC [1]: 10 mg/L (≈ 19 µM); MIC [2]: 0.156 mg/L (≈ 0.297 µM); MIC [3]: 0.156 mg/L (≈ 0.297 µM); MIC [4]: 0.156 mg/L (≈ 0.297 µM); MIC [5]: 0.156 mg/L (≈ 0.297 µM); MIC [6]: 0.156 mg/L (≈ 0.297 µM)
